# Test results as given in article PMC9127750, “Structure-based design of CDC42 effector interaction inhibitors for the treatment of cancer” (Cell reports, 2022).
# Tested on: WM3248 melanoma cells, 486 antibodies
# Test: Reverse phase protein arrays (RPPA);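 on CA9.R.C RPPA level: ratio of treated to vehicle (0 µM) normalized linear protein signal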;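 on RPPA ACC1.R.C: ratio of treated to vehicle (0 µM) normalized linear protein signal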;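 on RPPA ASNS.R.V: ratio of treated to vehicle (0 µM) normalized linear protein signal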;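 on RPPA AceCS1.R.V: ratio of treated to vehicle (0 µM) normalized linear protein signal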;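 on RPPA Akt1.R.V: ratio of treated to vehicle (0 µM) normalized linear protein signal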;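 on RPPA Ambra1 pS52.R.C: ratio of treated to vehicle (0 µM) normalized linear protein signal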;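 on RPPA Atg5.R.C: ratio of treated to vehicle (0 µM) normalized linear protein signal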;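 on RPPA Bim.R.V: ratio of treated to vehicle (0 µM) normalized linear protein signal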
# Assay type: cell-based, Human
# Settings: 5 uM
# Description: Pellets were snap frozen in liquid nitrogen and shipped to MD Anderson Cancer Center core RPPA facility for RPPA analysis (Table S5). Three biological replicates for each sample were generated.
# Nomenclatures on the RPPA heatmaps: name_of_antibody.species_of_antibody.status_of_antibody. V - antibody validated; C - validation of antibody in progress; Q - antibody nonspecific; E – under evaluation; antibodies raised in M - mouse, G - goat, R - rabbit, or T - rat.
compound,measurement,setting,value
"CN(C)c1cccc(Nc2cc(-c3ccccc3)nc(C3CCNCC3)n2)c1 [ARN22089, N1,N1-dimethyl-N3-(6-phenyl-2-(piperidin-4-yl)pyrimidin-4-yl)benzene-1,3-diamine]",RPPA Akt_pT308.R.V,5W3,0.946
same,RPPA Ambra1_pS52.R.C,5W3,0.917
same,RPPA Annexin.I.M.V,5W3,0.971
same,RPPA Annexin.VII.M.V,5W3,1.007
same,RPPA Atg3.R.V,5W3,1.133
same,RPPA Atg4B.R.C,5W3,1.148
same,RPPA Atg5.R.C,5W3,0.936
same,RPPA Atg7.R.V,5W3,1.164
same,RPPA Aurora.A.R.C,5W3,1.000
same,RPPA Aurora.ABC_pT288_pT232_pT198.R.C,5W3,0.878
same,RPPA Aurora.B.R.V,5W3,0.688
same,RPPA Axl.R.V,5W3,1.276
same,RPPA B7.H4.R.C,5W3,1.076
same,RPPA B.Raf_pS445.R.V,5W3,1.159
same,RPPA BAP1.M.V,5W3,0.823
same,RPPA BCL2A1.R.V,5W3,0.750
same,RPPA BMK1.Erk5_pT218_Y220.R.V,5W3,1.014
same,RPPA BRCA1.M.C,5W3,0.946
same,RPPA BRD4.R.V,5W3,1.138
same,RPPA Bad_pS112.R.V,5W3,1.056
same,RPPA Bak.R.C,5W3,1.134
same,RPPA Bax.R.V,5W3,0.916
same,RPPA Bcl2.R.C,5W3,0.798
same,RPPA Bcl.xL.R.V,5W3,0.681
same,RPPA Beclin.R.C,5W3,0.789
same,RPPA Bid.R.C,5W3,1.142
same,RPPA Bim.R.V,5W3,0.991
same,RPPA X4E.BP1.R.V,5W3,1.157
same,RPPA X4E.BP1_pT37_T46.R.V,5W3,0.968
same,RPPA X14.3.3.zeta.R.V,5W3,0.946
same,RPPA X14.3.3βR.V,5W3,1.033
same,RPPA X14.3.3εM.C,5W3,0.879
same,RPPA X53BP1.R.V,5W3,0.922
same,RPPA b.Catenin.R.V,5W3,0.837
same,RPPA b.Catenin_pT41_S45.R.V,5W3,0.998
same,RPPA c.Abl.R.V,5W3,1.059
same,RPPA c.Abl_pY412.R.C,5W3,1.150
same,RPPA c.IAP2.R.C,5W3,1.026
same,C.Raf.R.C RPPA level,Average,1.065
same,C.Raf_pS338.R.V RPPA level,Average,1.113
same,CA9.R.C RPPA level,Average,0.982
same,CD2.M.C RPPA level,Average,1.031
same,CD4.R.V RPPA level,Average,1.062
same,CD5.M.C RPPA level,Average,1.017
same,CD20.R.C RPPA level,Average,0.788
same,CD26.R.V RPPA level,Average,0.939
same,CD29.M.V RPPA level,Average,1.028
same,CD31.M.V RPPA level,Average,1.028
same,CD44.R.C RPPA level,Average,0.921
same,CD45.M.V RPPA level,Average,1.027
same,CD49b.M.V RPPA level,Average,0.960
same,CD68.M.C RPPA level,Average,1.012
same,CD74.M.V RPPA level,Average,0.998
same,CD134.R.V RPPA level,Average,1.020
same,CD171.M.V RPPA level,Average,0.844
same,CDK1_pT14.R.C RPPA level,Average,1.060
same,CDK9.R.V RPPA level,Average,0.980
same,CDT1.R.V RPPA level,Average,1.028
same,CENP.A.R.V RPPA level,Average,0.953
same,CHD1L.R.V RPPA level,Average,1.018
same,CIITA.R.C RPPA level,Average,0.895
same,COG3.R.V RPPA level,Average,1.097
same,CRABP1.R.C RPPA level,Average,1.004
same,CRABP2.R.V RPPA level,Average,1.035
same,CREB_pS133.R.C RPPA level,Average,1.124
same,CSK.R.C RPPA level,Average,0.918
same,Calnexin.R.V RPPA level,Average,0.992
same,Caspase.7.cleaved..R.C RPPA level,Average,1.029
same,Caspase.8.M.Q RPPA level,Average,0.956
same,Caspase.8.cleaved.R.C RPPA level,Average,1.054
same,Cdc6.R.V RPPA level,Average,0.980
same,Cdc42.R.C RPPA level,Average,1.028
same,Chk1_pS296.R.V RPPA level,Average,1.083
same,Chk1_pS345.R.C RPPA level,Average,0.981
same,Chk2.M.V RPPA level,Average,0.925
same,Chk2_pT68.R.C RPPA level,Average,1.151
same,Claudin.7.R.V RPPA level,Average,0.907
same,Collagen.VI.R.V RPPA level,Average,1.059
same,Complex.II.Subunit.M.V RPPA level,Average,0.933
same,Connexin.43.R.C RPPA level,Average,1.140
same,Coup.TFII.R.C RPPA level,Average,1.033
same,Cox2.R.C RPPA level,Average,1.057
same,Cox.IV.R.V RPPA level,Average,1.028
same,Creb.R.C RPPA level,Average,1.080
same,CtIP.R.V RPPA level,Average,0.961
same,Cyclin.B1.R.V RPPA level,Average,1.030
same,Cyclin.D1.R.C RPPA level,Average,1.001
same,Cyclin.D3.M.V RPPA level,Average,1.046
same,Cyclin.E1.R.V RPPA level,Average,0.995
same,Cyclophilin.F.M.V RPPA level,Average,0.908
same,D.a.Tubulin.R.V RPPA level,Average,1.114
same,DAPK1_pS308.M.C RPPA level,Average,0.822
same,DDB.1.R.V RPPA level,Average,1.124
same,DDR1.R.V RPPA level,Average,0.952
same,DDR1_pY513.R.C RPPA level,Average,1.021
same,DJ1.R.V RPPA level,Average,1.059
same,DM.K9.Histone.H3.M.V RPPA level,Average,0.994
same,DNA.Ligase.IV.R.C RPPA level,Average,1.104
same,DNA_POLG.R.V RPPA level,Average,0.927
same,RPPA A.Raf.R.V,Average,1.059
same,RPPA A.Raf_pS299.R.C,Average,0.992
same,RPPA ACC1.R.C,Average,1.065
same,RPPA ACC_pS79.R.V,Average,0.961
same,RPPA ACLY_pS455.R.V,Average,0.986
same,RPPA ACSL1.R.V,Average,0.842
same,RPPA ACVRL1.R.C,Average,0.970
same,RPPA ADAR1.M.V,Average,1.014
same,RPPA ALKBH5.R.V,Average,0.919
same,RPPA AMPK.a2_pS345.R.V,Average,1.081
same,RPPA AMPKa.R.C,Average,1.048
same,RPPA AMPKa_pT172.R.C,Average,1.331
same,RPPA AR.R.V,Average,1.032
same,RPPA ARID1A.R.C,Average,1.009
same,RPPA ASNS.R.V,Average,1.062
same,RPPA ATM.R.V,Average,1.153
same,RPPA ATM_pS1981.R.V,Average,0.964
same,RPPA ATP5A.M.C,Average,0.801
same,RPPA ATP5H.R.V,Average,0.961
same,RPPA ATR.R.V,Average,0.966
same,RPPA ATRX.R.C,Average,1.030
same,RPPA ATR_pS428.R.C,Average,1.061
same,RPPA AceCS1.R.V,Average,0.899
same,RPPA Akt1.R.V,Average,0.928
same,RPPA Akt1_pS473.R.V,Average,1.048
same,RPPA Akt2.R.V,Average,1.002
same,RPPA Akt2_pS474.R.C,Average,1.185
same,RPPA Akt.R.V,Average,1.002
same,RPPA Akt_pS473.R.V,Average,1.132
same,RPPA Akt_pT308.R.V,Average,0.940
same,RPPA Ambra1_pS52.R.C,Average,0.946
same,RPPA Annexin.I.M.V,Average,1.026
same,RPPA Annexin.VII.M.V,Average,0.993
same,RPPA Atg3.R.V,Average,1.035
same,RPPA Atg5.R.C,Average,0.970
same,RPPA Atg7.R.V,Average,0.970
same,RPPA Aurora.A.R.C,Average,0.940
same,RPPA Aurora.ABC_pT288_pT232_pT198.R.C,Average,0.876
same,RPPA Aurora.B.R.V,Average,0.890
same,RPPA Axl.R.V,Average,1.076
same,RPPA B7.H3.R.C,Average,1.022
same,RPPA B7.H4.R.C,Average,1.046
same,RPPA B.Raf.R.C,Average,1.049
same,RPPA BAP1.M.V,Average,0.921
same,RPPA BCL2A1.R.V,Average,0.906
same,RPPA BMK1.Erk5_pT218_Y220.R.V,Average,0.997
same,RPPA Bad_pS112.R.V,Average,1.055
same,RPPA Bax.R.V,Average,0.956
same,RPPA Bcl2.R.C,Average,0.897
same,RPPA Bcl.xL.R.V,Average,0.932
same,RPPA Beclin.R.C,Average,0.921
same,RPPA BiP.GRP78.M.C,Average,0.957
same,RPPA Bid.R.C,Average,1.077
same,RPPA Bim.R.V,Average,0.984
same,RPPA DNMT1.R.V,Average,0.995
same,RPPA DRP1.R.V,Average,1.010
same,RPPA DUSP4.R.V,Average,1.114
same,RPPA DYRK1B.R.C,Average,1.013
same,RPPA Dvl3.R.V,Average,1.014
same,RPPA E2F1.R.V,Average,0.961
same,RPPA E.Cadherin.R.V,Average,0.957
same,RPPA EGFR.R.V,Average,0.980
same,RPPA EGFR_pY1068.R.C,Average,0.993
same,RPPA EGFR_pY1173.R.V,Average,1.046
